Article PMC12050906 (Drug Development Research, 2025)

Legend:
[1] = biological target: 12-lipoxygenase (12-LO) (Homo sapiens, UniProt P18054); assay: 12-HETE biosynthesis; type: cell-based
[2] = biological target: T1, 5-lipoxygenase (5-LO) (Homo sapiens, UniProt P09917); assay: 5-LO product biosynthesis; type: cell-based
T1 sequence (P09917 1-674): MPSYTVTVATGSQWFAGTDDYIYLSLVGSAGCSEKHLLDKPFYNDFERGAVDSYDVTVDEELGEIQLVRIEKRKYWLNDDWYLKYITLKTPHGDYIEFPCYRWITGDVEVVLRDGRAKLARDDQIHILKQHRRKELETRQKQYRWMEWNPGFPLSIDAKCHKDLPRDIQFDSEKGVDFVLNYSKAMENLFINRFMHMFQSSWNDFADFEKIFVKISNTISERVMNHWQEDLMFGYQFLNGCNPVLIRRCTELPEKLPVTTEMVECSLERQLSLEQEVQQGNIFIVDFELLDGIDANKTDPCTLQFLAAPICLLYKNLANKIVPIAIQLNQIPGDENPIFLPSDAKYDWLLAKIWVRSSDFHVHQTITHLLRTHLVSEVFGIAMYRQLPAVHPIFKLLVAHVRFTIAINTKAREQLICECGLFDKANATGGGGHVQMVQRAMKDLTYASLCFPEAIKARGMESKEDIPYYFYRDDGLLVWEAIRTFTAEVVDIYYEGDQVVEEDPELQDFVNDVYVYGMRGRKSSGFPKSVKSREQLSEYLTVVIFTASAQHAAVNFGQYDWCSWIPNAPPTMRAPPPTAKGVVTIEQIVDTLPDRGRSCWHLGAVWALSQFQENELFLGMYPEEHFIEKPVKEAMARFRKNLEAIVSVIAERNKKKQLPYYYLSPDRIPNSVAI
T1 sequence (P20292 1-161 partner): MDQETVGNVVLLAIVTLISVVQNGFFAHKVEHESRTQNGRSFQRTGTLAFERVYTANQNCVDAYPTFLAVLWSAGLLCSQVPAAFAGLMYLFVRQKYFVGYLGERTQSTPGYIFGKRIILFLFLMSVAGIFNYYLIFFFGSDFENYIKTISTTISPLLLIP

Chain of 12-lipoxygenase (12-LO) (P18054 whole entry): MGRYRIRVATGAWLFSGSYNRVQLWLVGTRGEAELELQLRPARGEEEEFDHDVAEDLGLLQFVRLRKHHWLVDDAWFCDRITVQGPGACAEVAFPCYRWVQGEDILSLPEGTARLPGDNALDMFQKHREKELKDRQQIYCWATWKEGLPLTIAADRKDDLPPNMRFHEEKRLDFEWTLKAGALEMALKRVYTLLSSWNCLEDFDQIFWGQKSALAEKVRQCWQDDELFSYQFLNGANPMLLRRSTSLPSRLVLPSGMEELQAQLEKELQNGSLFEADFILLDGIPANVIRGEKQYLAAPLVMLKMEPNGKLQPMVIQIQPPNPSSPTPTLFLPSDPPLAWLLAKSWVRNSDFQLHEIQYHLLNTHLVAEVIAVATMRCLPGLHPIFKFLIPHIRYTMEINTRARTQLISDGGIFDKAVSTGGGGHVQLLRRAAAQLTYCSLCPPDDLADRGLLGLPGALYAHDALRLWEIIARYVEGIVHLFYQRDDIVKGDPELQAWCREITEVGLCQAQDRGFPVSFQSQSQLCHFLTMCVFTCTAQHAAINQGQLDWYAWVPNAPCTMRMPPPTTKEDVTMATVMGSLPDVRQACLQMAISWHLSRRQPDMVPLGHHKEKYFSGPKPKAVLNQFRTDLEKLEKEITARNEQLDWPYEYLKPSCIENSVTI

- % remaining at 1 μM [1]: 74.3
- IC50 [2]: 1000 nM
SMILES: O=C(/C=C/c1ccc(O)c(O)c1)OCCc1ccccc1 [compound 1, Caffeic acid phenethyl ester]
